Measurements taken from patent US6699686B1, “Modified nuclear glucocorticoid receptor, fusion protein, and DNA fragments coding for said receptor and said fusion protein” (Association pour le Development de la Recherche en …, priority 1996, dated 2004).

Target: T1, Cre-LBD[GR(I747/T)] (Homo sapiens, UniProt P04150, I747T)
T1 construct: the region containing the mutated LBD of HG1 [aa 500-777]; Cre recombinase aa 1-343 (bacteriophage P1); F region of the human estrogen receptor (aa 553-595); expressed in transfected cells
T1 sequence (P04150 500-777 I747T): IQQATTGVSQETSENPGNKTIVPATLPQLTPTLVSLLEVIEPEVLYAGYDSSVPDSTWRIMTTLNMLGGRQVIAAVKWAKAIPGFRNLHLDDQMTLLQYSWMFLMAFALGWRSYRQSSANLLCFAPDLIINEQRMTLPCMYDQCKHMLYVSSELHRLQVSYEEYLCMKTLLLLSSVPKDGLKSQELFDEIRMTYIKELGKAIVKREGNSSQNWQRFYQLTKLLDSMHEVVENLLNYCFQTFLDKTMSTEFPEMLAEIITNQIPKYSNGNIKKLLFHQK
Assay: PCR analysis of recombinase activity in RXRα+/−(LNL):Cre-GR(I747/T) line constitutively expressing the chimeric protein
Format: cell-based
Conditions: for recombinase activity: ligand concentration ranging from 10^−9 to 10^−6 M; for recombinase activity (191 bp PCR fragment of recombinant allele): ligand 10^−6 M, 72 hours, expression cassette integrated into the genome
Method: The resistant clones were obtained according to the procedure described by Metzger et al. (28).
The DNA amplifications were carried out using the “Polymerase Chain Reaction” (PCR) technique according to the protocol described by Chen and Evans (60). The primers used are: SB211 and PZ105, having respectively as nucleotide sequence 5′-[…]-3′ (SEQ ID NO: 10) and 5′-[…]-3′ (SEQ ID NO: 11). After denaturation for 8 min at 94° C., 2.5 units of Taq polymerase are added. The amplification is carried out by performing 35 cycles (30 sec. at 94° C., 30 sec. at 50° C.) followed by one cycle (30 sec. at 94° C., 30 sec. at 50° C., 5 min at 72° C.), the product of which is stored at 4° C.
The products of the reactions were separated on polyacrylamide (10%) or agarose (2.5%) gel. The DNA was visualized by UV followed by ethidium bromide staining, or by Southern blotting (42).
The amplified DNA was separated on acrylamide gel and stained with ethidium bromide. Lanes 1, 2, 3 and 4 contain respectively the PCR products produced with DNA extracted from wild-type (WT) F9 cells, RXRα^+/−(LNL), RXRα^+/−(L) cells and C2RXRα^+(L)/−(L) cells (73). Lane 8 contains a size marker (1 kb ladder; GibcoBRL).
The amplified DNA was separated on agarose gel and analyzed according to the Southern technique. The amplified fragments corresponding to the wild-type and recombinant alleles were detected by hybridization with the aid of the synthetic oligonucleotide (5′-[…]-3′) (SEQ ID NO: 12), radiolabeled at the 5′ end with T4 polynucleotide kinase. The signal was visualited and quantified with the aid of a “phosphoimager” (Fujix bas2000).
The recombinant allele was detected according to the procedure described in FIG. 8. The amplified DNA was separated on agarose gel and analyzed according to the Southern technique. The amplified fragments corresponding to the recombinant allele were detected by autoradiography following hybridization with the synthetic oligonucleotide 5′-[…]-3′ (SEQ ID NO: 13), (containing a loxP site) radiolabeled with Phosphorus^32 at the 5′ end by T4 polynucleotide kinase.
The recombinase activity was tested following a treatment of these cells with Dex (10^−6 M) for 72 hours.

Compound | recombinase activity | recombinase activity (191 bp PCR fragment of recombinant allele) | recombinase activity (191 bp PCR fragment of recombinant allele) (listed as Dex)
C[C@]12CCC(=O)C=C1CC[C@@H]1[C@@H]2[C@@H](O)C[C@]2(C=O)[C@@H](C(=O)CO)CC[C@@H]12 [Aldosterone, aldosterone] | No recombinase activity |  | 
C[C@]12C[C@H](O)[C@H]3[C@@H](CCC4=CC(=O)CC[C@@]43C)[C@@H]1CC[C@@H]2C(=O)CO [Corticosterone, corticosterone] | No recombinase activity |  | 
C[C@]12CCC(=O)C=C1CC[C@@H]1[C@@H]2[C@@H](O)C[C@@]2(C)[C@H]1CC[C@]2(O)C(=O)CO [Cortisol, cortisol] | No recombinase activity | inactive | 
C[C@@H]1C[C@H]2[C@@H]3CCC4=CC(=O)C=C[C@]4(C)[C@@]3(F)[C@@H](O)C[C@]2(C)[C@@]1(O)C(=O)CO [Dexamethasone, dexamethasone] |  |  | active
